The supplement of paper PMC10307832

Assays:
Test in all cases: relative viability (nuclei count vs DMSO), 5 days (fraction); higher = more cells survive
NCI-H2170 = test system: NCI-H2170
In short: (§1)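 Lung cancer cell lines in 1536-well plates got either a single drug or a fixed anchor-drug dose together with five library-drug doses (not always all listed) in √10 steps, by pin tool, on the day after seeding. Nuclei were counted after 5 days, and relative viability is the treated-to-vehicle ratio of nuclei counts. Values are medians of duplicate plates.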

HARA = test system: HARA
In short: as §1

LK-2 = test system: LK-2
In short: as §1

NCI-H460 = test system: NCI-H460
In short: as §1

ABC-1 = test system: ABC-1
In short: as §1

NCI-H3122 = test system: NCI-H3122
In short: as §1

HCC-366 = test system: HCC-366
In short: as §1

NCI-H661 = test system: NCI-H661
In short: as §1

CAL-12T = test system: CAL-12T
In short: as §1

201T = test system: 201T
In short: as §1

NCI-H1650 = test system: NCI-H1650
In short: as §1

NCI-H1437 = test system: NCI-H1437
In short: as §1

NCI-H727 = test system: NCI-H727
In short: as §1

PC-14 = test system: PC-14
In short: as §1

BEN = test system: BEN
In short: as §1

LOU-NH91 = test system: LOU-NH91
In short: as §1

EKVX = test system: EKVX
In short: as §1

COR-L 105 = test system: COR-L 105
In short: as §1

NCI-H2009 = test system: NCI-H2009
In short: as §1

NCI-H1666 = test system: NCI-H1666
In short: as §1

For `O=c1cc(-c2cccc3c2Sc2ccccc2S3)oc(N2CCOCC2)c1` + CS(=O)(=O)CCNCc1ccc(-c2ccc3ncnc(Nc4ccc(OCc5cccc(F)c5)c(Cl)c4)c3c2)o1 [Lapatinib] (partner 2 µM), the relative viability (NCI-H2170; first compound 0.08 µM) was 0.258, the relative viability (NCI-H2170; first compound 0.253 µM) was 0.284 and the relative viability (NCI-H2170; first compound 0.8 µM) was 0.239. It also gave a relative viability (NCI-H2170; first compound 2.53 µM) of 0.271, a relative viability (NCI-H2170; first compound 8 µM) of 0.308 and a relative viability (HARA; first compound 0.08 µM) of 0.662. It also gave a relative viability (HARA; first compound 0.253 µM) of 0.751, a relative viability (HARA; first compound 0.8 µM) of 0.562 and a relative viability (HARA; first compound 2.53 µM) of 0.632. For the same molecule, the relative viability (HARA; first compound 8 µM) was 0.719, the relative viability (LK-2; first compound 0.08 µM) was 0.86 and the relative viability (LK-2; first compound 0.253 µM) was 1. For the same molecule, the relative viability (LK-2; first compound 0.8 µM) was 0.997, the relative viability (LK-2; first compound 2.53 µM) was 0.918 and the relative viability (LK-2; first compound 8 µM) was 1.21. It also gave a relative viability (NCI-H460; first compound 0.08 µM) of 1.13, a relative viability (NCI-H460; first compound 0.253 µM) of 1.52 and a relative viability (NCI-H460; first compound 0.8 µM) of 1.22. For the same molecule, the relative viability (NCI-H460; first compound 2.53 µM) was 0.843, the relative viability (NCI-H460; first compound 8 µM) was 1.19 and the relative viability (ABC-1; first compound 0.08 µM) was 1.04. The relative viability (ABC-1; first compound 0.253 µM) was 1.2, the relative viability (ABC-1; first compound 0.8 µM) was 1.28 and the relative viability (ABC-1; first compound 2.53 µM) was 0.991. The relative viability (ABC-1; first compound 8 µM) was 1.41, the relative viability (NCI-H3122; first compound 0.08 µM) was 1.03 and the relative viability (NCI-H3122; first compound 0.253 µM) was 1.15. For the same molecule, the relative viability (NCI-H3122; first compound 0.8 µM) was 1, the relative viability (NCI-H3122; first compound 2.53 µM) was 0.96 and the relative viability (NCI-H3122; first compound 8 µM) was 1.02. It also gave a relative viability (HCC-366; first compound 0.08 µM) of 1.12, a relative viability (HCC-366; first compound 0.253 µM) of 1.71 and a relative viability (HCC-366; first compound 0.8 µM) of 1.12. For the same molecule, the relative viability (HCC-366; first compound 2.53 µM) was 0.995, the relative viability (HCC-366; first compound 8 µM) was 1.56 and the relative viability (NCI-H661; first compound 0.08 µM) was 0.481. For the same molecule, the relative viability (NCI-H661; first compound 0.253 µM) was 0.412, the relative viability (NCI-H661; first compound 0.8 µM) was 0.543 and the relative viability (NCI-H661; first compound 2.53 µM) was 0.464. The relative viability (NCI-H661; first compound 8 µM) was 0.579, the relative viability (CAL-12T; first compound 0.08 µM) was 0.501 and the relative viability (CAL-12T; first compound 0.253 µM) was 0.646. The relative viability (CAL-12T; first compound 0.8 µM) was 0.595, the relative viability (CAL-12T; first compound 2.53 µM) was 0.551 and the relative viability (CAL-12T; first compound 8 µM) was 0.564. The relative viability (201T; first compound 0.08 µM) was 1.02, the relative viability (201T; first compound 0.253 µM) was 1.09 and the relative viability (201T; first compound 0.8 µM) was 0.915. It also gave a relative viability (201T; first compound 2.53 µM) of 0.951, a relative viability (201T; first compound 8 µM) of 1 and a relative viability (NCI-H1650; first compound 0.08 µM) of 0.687. It also gave a relative viability (NCI-H1650; first compound 0.253 µM) of 0.917, a relative viability (NCI-H1650; first compound 0.8 µM) of 0.717 and a relative viability (NCI-H1650; first compound 2.53 µM) of 0.84. For the same molecule, the relative viability (NCI-H1650; first compound 8 µM) was 0.847, the relative viability (NCI-H1437; first compound 0.08 µM) was 0.782 and the relative viability (NCI-H1437; first compound 0.253 µM) was 1.2. The relative viability (NCI-H1437; first compound 0.8 µM) was 0.817, the relative viability (NCI-H1437; first compound 2.53 µM) was 0.751 and the relative viability (NCI-H1437; first compound 8 µM) was 1. For the same molecule, the relative viability (NCI-H727; first compound 0.253 µM) was 1.17, the relative viability (NCI-H727; first compound 2.53 µM) was 0.802 and the relative viability (NCI-H727; first compound 8 µM) was 1.16. For the same molecule, the relative viability (PC-14; first compound 0.08 µM) was 0.291, the relative viability (PC-14; first compound 0.253 µM) was 0.388 and the relative viability (PC-14; first compound 0.8 µM) was 0.245. For the same molecule, the relative viability (PC-14; first compound 2.53 µM) was 0.245, the relative viability (PC-14; first compound 8 µM) was 0.308 and the relative viability (BEN; first compound 0.08 µM) was 0.703. The relative viability (BEN; first compound 0.253 µM) was 0.706, the relative viability (BEN; first compound 0.8 µM) was 0.81 and the relative viability (BEN; first compound 2.53 µM) was 0.734. It also gave a relative viability (BEN; first compound 8 µM) of 1.05, a relative viability (LOU-NH91; first compound 0.08 µM) of 0.707 and a relative viability (LOU-NH91; first compound 0.253 µM) of 0.803. It also gave a relative viability (LOU-NH91; first compound 0.8 µM) of 0.554, a relative viability (LOU-NH91; first compound 2.53 µM) of 0.751 and a relative viability (LOU-NH91; first compound 8 µM) of 0.732. For the same molecule, the relative viability (EKVX; first compound 0.08 µM) was 0.226, the relative viability (EKVX; first compound 0.253 µM) was 0.186 and the relative viability (EKVX; first compound 0.8 µM) was 0.166. The relative viability (EKVX; first compound 2.53 µM) was 0.186, the relative viability (EKVX; first compound 8 µM) was 0.202 and the relative viability (COR-L 105; first compound 0.08 µM) was 0.359. For the same molecule, the relative viability (COR-L 105; first compound 0.253 µM) was 0.323, the relative viability (COR-L 105; first compound 0.8 µM) was 0.306 and the relative viability (COR-L 105; first compound 2.53 µM) was 0.375. For the same molecule, the relative viability (COR-L 105; first compound 8 µM) was 0.386, the relative viability (NCI-H2009; first compound 0.08 µM) was 0.879 and the relative viability (NCI-H2009; first compound 0.253 µM) was 0.893. For the same molecule, the relative viability (NCI-H2009; first compound 0.8 µM) was 0.876, the relative viability (NCI-H2009; first compound 2.53 µM) was 0.895 and the relative viability (NCI-H2009; first compound 8 µM) was 0.823. It also gave a relative viability (NCI-H1666; first compound 0.08 µM) of 0.533, a relative viability (NCI-H1666; first compound 0.253 µM) of 0.781 and a relative viability (NCI-H1666; first compound 0.8 µM) of 0.485. For the same molecule, the relative viability (NCI-H1666; first compound 2.53 µM) was 0.652 and the relative viability (NCI-H1666; first compound 8 µM) was 0.573.
